Assay results: patent US20100028293A1, “Agents for control of codling moth in fruit orchards” (Efal Chemical Industries Ltd., priority 2004, published 2010)
Each block holds one compound with its values, some of them ahead of it.

What was measured:
codling moth adults = assay: Cage bioassay, paired traps with synthetic compounds versus water/ethanol control trap; type: in vivo, Cydia pomonella; conditions: for attractiveness to the adult insects (insects caught in trap): individual compounds at the concentrations detected in the leaf extracts, paired with control trap of water and ethanol, 60 adults, overnight, decreasing order: methyl salicylate and theaspirane mixture, linalool, benzyl alcohol
Description: (i) Insects—Eggs of the CM Cydia pomonella L. were hatched at room temperature in a petri dish. The larvae were fed an artificial diet (Manduca Premix-Heliothis Premix, Stonefly Inc., Brvan, Tex.), kept at 25±0.5° C., 60±1% relative humidity and a photoperiod of 16:8 h (L:D) until the fifth instar larvae, which were transferred to corrugated paper strips (2 cm^2). Upon emergence, adult insects of mixed sex and age (within 2 days) were used for the cage bioassays.
(v) Cage bioassays—Trapping tests were conducted in screen cages (96×68×45 cm) in the laboratory at room temperature (23° C.±3° C.) based on the method of Zhu et al. (2003). Sixty codling moth adults of mixed sex and ages (2 days after pupal emergence) were released into a cage containing the traps with different treatments. […] A Whatman paper wick (10 cm long) was used as a dispenser. To examine the effects of adding recombinant BGL1 to the leaf extract, four traps were constructed and put into the same cage. The first trap contained 10 ml of leaf extract with the addition of recombinant BGL1. The second trap contained the same amount of leaf extract with the addition of glucoimidazole. The third trap contained only leaf extract and the fourth trap contained water. The insects caught in the traps, or around the trap, were counted 12 h after their release. The insects around the trap were defined as follows: the space of the screen cage was divided equally into four parts. Each trap was put in the center of each part. The number of the insects present in each specific space, not including the ones inside the trap, was obtained in the experiments. To test the attractiveness of the synthetic compounds, traps were made with the individual chemicals that were first dissolved in ethanol at the concentrations determined by the SPME-GC-MS analyses in leaf extracts treated with BGL1. The final concentration of ethanol was 0.01%. Each trap was kept in the cage with only a control water trap including 0.01% ethanol. The experiments were conducted overnight (from 9 pm to 9 am) to cover their active time before the twilight in the early morning. […] This experiment was replicated 3 times. The traps were randomly arranged in the replications to avoid possible position effect of the traps. The studies on sex ratios of trapped insects were skipped because of complicated involvement of insect pheromones.

[1] = test system: endogenous β-glucosidase in apple leaf extracts; assay: Quantitative β-glucosidase activity assay with pNPG as substrate; type: biochemical, Malus domestica; conditions: 2 μM glucoimidazole added to leaf homogenate
Description: (ii) Apple leaf extract treatments—Apple (cv. Anna) spurs with both leaves and fruit were excised from a commercial orchard in the suburb of Rehovot, Israel, in June 2004. The leaves were excised from the spurs, rinsed with double distilled water (DDW) and then dried with filter paper. Dried leaves were homogenized in liquid nitrogen. Three times the weight of ice-cold extraction buffer containing 10 mM EDTA and 4 mM DTT in 50 mM citrate buffer, pH 4.3, was added to the leaf homogenate (4-5 g per treatment). The mixture was then rotated for 1 h at 4° C. and centrifuged at 16,000 g for 5 min. The supernatant (10 ml per treatment) was collected. In one treatment, 1 unit of recombinant A. niger BGL1 produced in P. pastoris (Dan et al., 2000) was added and the solution was kept at 37° C. for 4 h. In another treatment, 2 μM glucoimidazole (a β-glucosidase inhibitor) was added to the leaf homogenate immediately after the addition of the extraction buffer in order to block any endogenous β-glucosidase activity. Quantitative β-glucosidase activity was assayed using p-nitrophenyl-β-D-glucopyranoside (pNPG) as the substrate according to Shoseyov et al (1990).

Structure (SMILES): CCCCCCCCO [1-octanol, reference compound]
- effect on the behavior of codling moth adults (codling moth adults; 1-octanol alone or added to other compounds): does not have a significant effect
- insects caught in trap (codling moth adults; trap with 70 ng m^−1 1-octanol): did not catch any insects

Structure (SMILES): COC(=O)c1ccccc1O [methyl salicylate]
- attractiveness to the adult insects (insects caught in trap) (codling moth adults): more attractive than water

Structure (SMILES): C=CC(C)(O)CCC=C(C)C (stereo not shown) [linalool]
- attractiveness to the adult insects (insects caught in trap) (codling moth adults): more attractive than water

Structure (SMILES): OCc1ccccc1 [benzyl alcohol]
- attractiveness to the adult insects (insects caught in trap) (codling moth adults): more attractive than water

Structure (SMILES): CC(C)=CCC/C(C)=C/CO [geraniol]
- repellent effect on codling moth adults (codling moth adults; 39.4 ng ml^−1): exhibited a repellent effect

- β-glucosidase activity in the leaf extract after treatment [1]: undetectable levels
Structure (SMILES): OC[C@@H]1[C@@H](O)[C@H](O)[C@@H](O)c2nccn21 [glucoimidazole]
